Earlier results in PubChem BioAssay AID1259409 (Chemical Carcinogenesis Research Information System (CCRIS), 2018).

System: rodent chemically induced tumor inhibition, incidence and multiplicity
Assay: CCRIS tumor inhibitor studies

COc1cc(/C=C/C(=O)CC(=O)/C=C/c2ccc(O)c(OC)c2)ccc1O
tumour outcome (control, treated, inhibition, significance) (Carcinogen: 1,2-DIMETHYLHYDRAZINE [540-73-8], Species: RAT, Strain/Sex: WISTAR, Target Tissue: Type of Lesion: COLON, Dose [Carcinogen]: 20 MG/KG): 81.3%, 61%, 25%, p<0.05
tumour outcome (control, treated, inhibition, significance) (Carcinogen: 2,2'-DIHYDROXY-DI-N-PROPYLNITROSAMINE, 53609-64-6, N-ETHYL-N-HYDROXYETHYLNITROSAMINE, 13147-25-6, 3,2'-DIMETHYL-1,4-, Carcinogen: 2,2'-DIHYDROXY-DI-N-PROPYLNITROSAMINE, 53609-64-6, N-ETHYL-N-HYDROXYETHYLNITROSAMINE, 13147-25-6, 3,2'-DIMETHYL-1,4-, Dose [Inhibitor]: 0, 1% IN DIET FOR 4 WK BEGINNING 1 D PRIOR TO FIRST CARCINOGEN DOSE (STUDY DURATION: 36 WK), Route [Inhibitor]: ORAL, Species: RAT, Strain/Sex: F344/MALE, Target Tissue: Type of Lesion: KIDNEY: ADENOMA, Dose [Carcinogen]: 1000 MG/KG BW DHPN TWICE, 1500 MG/KG EHEN TWICE, 75 MG/KG BW DMAB 3 TIMES, SEQUENTIALLY OVER 3 WK, Promoter: NONE USED): 6/10 (60%), 6/13 (46%), 23%, not significant
tumour outcome (control, treated, inhibition, significance) (Carcinogen: 2,2'-DIHYDROXY-DI-N-PROPYLNITROSAMINE, 53609-64-6, N-ETHYL-N-HYDROXYETHYLNITROSAMINE, 13147-25-6, 3,2'-DIMETHYL-1,4-, Carcinogen: 2,2'-DIHYDROXY-DI-N-PROPYLNITROSAMINE, 53609-64-6, N-ETHYL-N-HYDROXYETHYLNITROSAMINE, 13147-25-6, 3,2'-DIMETHYL-1,4-, Dose [Inhibitor]: 0, 1% IN DIET FOR 4 WK BEGINNING 1 D PRIOR TO FIRST CARCINOGEN DOSE (STUDY DURATION: 36 WK), Route [Inhibitor]: ORAL, Species: RAT, Strain/Sex: F344/MALE, Target Tissue: Type of Lesion: LUNG: ADENOMA, Dose [Carcinogen]: 1000 MG/KG BW DHPN TWICE, 1500 MG/KG EHEN TWICE, 75 MG/KG BW DMAB 3 TIMES, SEQUENTIALLY OVER 3 WK, Promoter: NONE USED): 5/10 (50%), 10/13 (77%), -54%, not significant
tumour outcome (control, treated, inhibition, significance) (Carcinogen: 4-NITROQUINOLINE-1-OXIDE, 56-57-5, Dose [Inhibitor]: 0, 500 PPM IN DIET FOR 10 WK BEGINNING 1 WK PRIOR TO CARCINOGEN TREATMENT (STUDY DURATION: 32 WK), Route [Inhibitor]: ORAL, Species: RAT, Strain/Sex: F344/MALE, Target Tissue: Type of Lesion: TONGUE: CARCINOMA, Dose [Carcinogen]: 20 PPM IN DRINKING WATER FOR 8 WK, Promoter: NONE USED): 13/24 (54%), 1/19 (5%), 91%, p<0.05
tumour outcome (control, treated, inhibition, significance) (Carcinogen: 4-NITROQUINOLINE-1-OXIDE, 56-57-5, Dose [Inhibitor]: 0, 500 PPM IN DIET FOR 10 WK BEGINNING 1 WK PRIOR TO CARCINOGEN TREATMENT (STUDY DURATION: 32 WK), Route [Inhibitor]: ORAL, Species: RAT, Strain/Sex: F344/MALE, Target Tissue: Type of Lesion: TONGUE: PAPILLOMA, Dose [Carcinogen]: 20 PPM IN DRINKING WATER FOR 8 WK, Promoter: NONE USED): 4/24 (17%), 0/19 (0%), 100%, not significant
tumour outcome (control, treated, inhibition, significance) (Carcinogen: 4-NITROQUINOLINE-1-OXIDE, 56-57-5, Dose [Inhibitor]: 0, 500 PPM IN DIET FOR 22 WK BEGINNING 1 WK POST CARCINOGEN TREATMENT (STUDY DURATION: 32 WK), Route [Inhibitor]: ORAL, Species: RAT, Strain/Sex: F344/MALE, Target Tissue: Type of Lesion: TONGUE: CARCINOMA, Dose [Carcinogen]: 20 PPM IN DRINKING WATER FOR 8 WK, Promoter: NONE USED): 13/24 (54%), 3/20 (15%), 72%, p<0.05
tumour outcome (control, treated, inhibition, significance) (Carcinogen: 4-NITROQUINOLINE-1-OXIDE, 56-57-5, Dose [Inhibitor]: 0, 500 PPM IN DIET FOR 22 WK BEGINNING 1 WK POST CARCINOGEN TREATMENT (STUDY DURATION: 32 WK), Route [Inhibitor]: ORAL, Species: RAT, Strain/Sex: F344/MALE, Target Tissue: Type of Lesion: TONGUE: PAPILLOMA, Dose [Carcinogen]: 20 PPM IN DRINKING WATER FOR 8 WK, Promoter: NONE USED): 4/24 (17%), 2/20 (10%), 41%, not significant
tumour outcome (control, treated, inhibition, significance) (Carcinogen: 7,12-DIMETHYLBENZ[A]ANTHRACENE, 57-97-6, Dose [Inhibitor]: 0: 5% IN DIET FOR DURATION OF STUDY BEGINNING 2 WK PRIOR TO CARCINOGEN DOSE (STUDY DURATION: 6 MO), Route [Inhibitor]: ORAL, Species: RAT, Strain/Sex: WISTAR/FEMALE, Target Tissue: Type of Lesion: MAMMARY GLAND: TUMOR, Dose [Carcinogen]: 10 MG IN PEANUT OIL INJECTED INTO SUBCUTANEOUS POUCH CREATED IN THE 5TH AND 6TH MAMMARY GLAND REGION, Promoter: NONE USED): 20/20 (100%), 5/20 (25%), 75%, p<0.001
tumour outcome (control, treated, inhibition, significance) (Carcinogen: 7,12-DIMETHYLBENZ[A]ANTHRACENE, 57-97-6, Dose [Inhibitor]: 0, 2% IN DIET FOR 22 WK BEGINNING 2 WK PRIOR TO CARCINOGEN DOSE (STUDY DURATION: 22 WK), Route [Inhibitor]: ORAL, Species: MOUSE, Strain/Sex: SENCAR/FEMALE, Target Tissue: Type of Lesion: LYMPHATIC SYSTEM:LYMPHOMA OR LEUKEMIA, Dose [Carcinogen]: 1 MG IN 0.1 ML CORN OIL 1/WK FOR 5 WK, Promoter: NONE USED): 45%, 21%, 53%, p<0.05
tumour outcome (control, treated, inhibition, significance) (Carcinogen: 7,12-DIMETHYLBENZ[A]ANTHRACENE, 57-97-6, Dose [Inhibitor]: 0, 2% IN DIET FOR 22 WK BEGINNING 2 WK PRIOR TO CARCINOGEN DOSE (STUDY DURATION: 22 WK), Route [Inhibitor]: ORAL, Species: MOUSE, Strain/Sex: SENCAR/FEMALE, Target Tissue: Type of Lesion: MAMMARY GLAND: TUMOR, Dose [Carcinogen]: 1 MG IN 0.1 ML CORN OIL 1/WK FOR 5 WK, Promoter: NONE USED): 68%, 78%, -15%, not significant
tumour outcome (control, treated, inhibition, significance) (Carcinogen: 7,12-DIMETHYLBENZ[A]ANTHRACENE, 57-97-6, Dose [Inhibitor]: 0, 2% IN DIET FOR 22 WK BEGINNING 2 WK PRIOR TO CARCINOGEN DOSE (STUDY DURATION: 22 WK), Route [Inhibitor]: ORAL, Species: MOUSE, Strain/Sex: SENCAR/FEMALE, Target Tissue: Type of Lesion: OVARY:TUMOR, Dose [Carcinogen]: 1 MG IN 0.1 ML CORN OIL 1/WK FOR 5 WK, Promoter: NONE USED): 20%, 8%, 60%, p<0.1
tumour outcome (control, treated, inhibition, significance) (Carcinogen: 7,12-DIMETHYLBENZ[A]ANTHRACENE, 57-97-6, Dose [Inhibitor]: 0, 3 UMOL IN ACETONE 1/WK FOR 10 WK APPLIED 5 MIN PRIOR TO EACH CARCINOGEN DOSE (STUDY DURATION: 26 WK), Route [Inhibitor]: DERMAL, Species: MOUSE, Strain/Sex: CD-1/FEMALE, Target Tissue: Type of Lesion: SKIN: TUMORS, Dose [Carcinogen]: 2 NMOL 1/WK FOR 10 WK, Promoter: 12-O-TETRADECANOYLPHORBOL-13-ACETATE, 16561-29-8): 100%, 98%, 2%, not calculated
tumour outcome (control, treated, inhibition, significance) (Carcinogen: 7,12-DIMETHYLBENZ[A]ANTHRACENE, 57-97-6, Dose [Inhibitor]: 0, 10 UMOL IN ACETONE 1/WK FOR 10 WK APPLIED 5 MIN PRIOR TO EACH CARCINOGEN DOSE (STUDY DURATION: 26 WK), Route [Inhibitor]: DERMAL, Species: MOUSE, Strain/Sex: CD-1/FEMALE, Target Tissue: Type of Lesion: SKIN: TUMORS, Dose [Carcinogen]: 2 NMOL 1/WK FOR 10 WK, Promoter: 12-O-TETRADECANOYLPHORBOL-13-ACETATE, 16561-29-8): 100%, 98%, 2%, not calculated
tumour outcome (control, treated, inhibition, significance) (Carcinogen: 7,12-DIMETHYLBENZ[A]ANTHRACENE, 57-97-6, Dose [Inhibitor]: 10 UMOL IN 200 µL ACETONE 2/WK FOR 19 WK BEGINNING 1 WK POST CARCINOGEN DOSE (STUDY DURATION: 20 WK), Route [Inhibitor]: DERMAL, Species: MOUSE, Strain/Sex: CD-1/FEMALE, Target Tissue: Type of Lesion: SKIN: PAPILLOMA, Dose [Carcinogen]: 200 NMOL IN 200 µL ACETONE ONCE, Promoter: 12-O-TETRADECANOYLPHORBOL-13-ACETATE, 16561-29-8): 68%, 0%, 100%, not calculated
